# In ChEMBL document CHEMBL4630904, “Data for DCP probe BI 207127” (2021):
# The source made the active and inactive calls. The rule behind the calls is not given here.
# Tests used:
# [1] = biological target: RNA-directed RNA polymerase (Hepacivirus hominis, UniProt O39930); experiment: Enzymatic assay with HCV NS5B polymerase D21
# [2] = biological target: 5-hydroxytryptamine receptor 1B (Homo sapiens) (UniProt P28222); experiment: 5HT1B(H) Eurofins SafetyScreen44 (BI); conditions: filed as antagonist, Compound concentration 10.0 uM
# [3] = biological target: Cannabinoid receptor 1 (Homo sapiens) (UniProt P21554); experiment: CB1(HU)_AGON Eurofins SafetyScreen44 (BI); conditions: filed as agonist; Compound concentration 10.0 uM
# [4] = biological target: Prostaglandin G/H synthase 1 (Homo sapiens) (UniProt P23219); experiment: COX-1 Eurofins SafetyScreen44 (BI); conditions: Compound concentration 10.0 uM
# [5] = biological target: Prostaglandin G/H synthase 2 (Homo sapiens) (UniProt P35354); experiment: COX-2 Eurofins SafetyScreen44 (BI); conditions: Compound concentration 10.0 uM
# [6] = biological target: Kappa-type opioid receptor (Homo sapiens) (UniProt P41145); experiment: KAPPA(KOP)_HU Eurofins SafetyScreen44 (BI); conditions: Compound concentration 10.0 uM
# [7] = biological target: 5-hydroxytryptamine receptor 1A (Homo sapiens) (UniProt P08908); experiment: 5HT1A/H Eurofins SafetyScreen44 (BI); conditions: Compound concentration 10.0 uM
# [8] = biological target: 5-hydroxytryptamine receptor 2A (Homo sapiens) (UniProt P28223); experiment: 5HT2AH_AGON Eurofins SafetyScreen44 (BI); conditions: filed as agonist, Compound concentration 10.0 uM
# [9] = biological target: 5-hydroxytryptamine receptor 2B (Homo sapiens) (UniProt P41595); experiment: 5HT2B/H AG Eurofins SafetyScreen44 (BI); conditions: filed as agonist, Compound concentration 10.0 uM
# [10] = biological target: 5-hydroxytryptamine receptor 3A (Homo sapiens) (UniProt P46098); experiment: 5HT3/H Eurofins SafetyScreen44 (BI); conditions: Compound concentration 10.0 uM
# [11] = biological target: Adenosine receptor A2a (Homo sapiens) (UniProt P29274); experiment: A2A/H Eurofins SafetyScreen44 (BI); conditions: filed as antagonist, Compound concentration 10.0 uM
# [12] = biological target: Angiotensin-converting enzyme (Homo sapiens) (UniProt P12821); experiment: ACE(HU_AMTCH400) Eurofins SafetyScreen44 (BI); conditions: Compound concentration 10.0 uM
# [13] = biological target: Alpha-1A adrenergic receptor (Homo sapiens) (UniProt P35348); experiment: ALPHA1AH_ANTAG Eurofins SafetyScreen44 (BI); conditions: filed as antagonist, Compound concentration 10.0 uM
# [14] = biological target: Alpha-2A adrenergic receptor (Homo sapiens) (UniProt P08913); experiment: ALPHA2A/HU Eurofins SafetyScreen44 (BI); conditions: Compound concentration 10.0 uM
# [15] = biological target: Androgen receptor (Homo sapiens) (UniProt P10275); experiment: ANDROGEN/H Eurofins SafetyScreen44 (BI); conditions: Compound concentration 10.0 uM
# [16] = biological target: Beta-1 adrenergic receptor (Homo sapiens) (UniProt P08588); experiment: BETA1/HUM Eurofins SafetyScreen44 (BI); conditions: Compound concentration 10.0 uM
# [17] = biological target: Beta-2 adrenergic receptor (Homo sapiens) (UniProt P07550); experiment: BETA2/HUM Eurofins SafetyScreen44 (BI); conditions: filed as antagonist, Compound concentration 10.0 uM
# [18] = biological target: Gamma-aminobutyric acid receptor subunit alpha-1 (Rattus norvegicus) (UniProt P62813); experiment: BZD/CENTR/R Eurofins SafetyScreen44 (BI); conditions: Compound concentration 10.0 uM
# [19] = biological target: Voltage-dependent L-type calcium channel subunit alpha-1C (dihydropyridine site) (Rattus norvegicus, UniProt P22002); experiment: CA+/DHPSI/R Eurofins SafetyScreen44 (BI); design: mode of action inhibitor; conditions: rat brain, probe [3H](+)PN200-110, compound concentration 10 uM, read-out: % Ctrl
# [20] = biological target: Cannabinoid receptor 2 (Homo sapiens) (UniProt P34972); experiment: CB2/PERIPH/H Eurofins SafetyScreen44 (BI); conditions: Compound concentration 10.0 uM
# [21] = biological target: Cholecystokinin receptor type A (Homo sapiens) (UniProt P32238); experiment: CCKA/H Eurofins SafetyScreen44 (BI); conditions: Compound concentration 10.0 uM
# [22] = biological target: D(1A) dopamine receptor (Homo sapiens) (UniProt P21728); experiment: D1/H Eurofins SafetyScreen44 (BI); conditions: filed as antagonist, Compound concentration 10.0 uM
# [23] = biological target: D(2) dopamine receptor (Homo sapiens) (UniProt P14416); experiment: D2SH_AGON Eurofins SafetyScreen44 (BI); conditions: filed as agonist, Compound concentration 10.0 uM
# [24] = biological target: Sodium-dependent dopamine transporter (Homo sapiens) (UniProt Q01959); experiment: DATRANS/HUM Eurofins SafetyScreen44 (BI); conditions: Compound concentration 10.0 uM
# [25] = biological target: Delta-type opioid receptor (Homo sapiens) (UniProt P41143); experiment: DELTA2/H Eurofins SafetyScreen44 (BI); conditions: Compound concentration 10.0 uM
# [26] = biological target: Endothelin-1 receptor (Homo sapiens) (UniProt P25101); experiment: ETA/H Eurofins SafetyScreen44 (BI); conditions: Compound concentration 10.0 uM
# [27] = biological target: Glucocorticoid receptor (Homo sapiens) (UniProt P04150); experiment: GCORTICOID/H Eurofins SafetyScreen44 (BI); conditions: Compound concentration 10.0 uM
# [28] = biological target: Histamine H1 receptor (Homo sapiens) (UniProt P35367); experiment: H1/PYRIL/HS Eurofins SafetyScreen44 (BI); conditions: Compound concentration 10.0 uM
# [29] = biological target: Histamine H2 receptor (Homo sapiens) (UniProt P25021); experiment: H2/APT/HS Eurofins SafetyScreen44 (BI); conditions: filed as antagonist, Compound concentration 10.0 uM
# hERG (KCNH2) = hERG (KCNH2) (Homo sapiens, UniProt Q12809); experiment: HERG_DOFETILIDE Eurofins SafetyScreen44 (BI); design: mode of action inhibitor; conditions: probe [3H] Dofetilide, compound concentration 10 uM, read-out: % Ctrl
# [30] = biological target: Potassium voltage-gated channel subfamily V member 1 (Rattus norvegicus) (UniProt P97557); experiment: K+/VOLT/RA Eurofins SafetyScreen44 (BI); conditions: Compound concentration 10.0 uM
# [31] = biological target: Tyrosine-protein kinase Lck (Homo sapiens) (UniProt P06239); experiment: LCK_CE Eurofins SafetyScreen44 (BI); conditions: Compound concentration 10.0 uM
# [32] = biological target: Muscarinic acetylcholine receptor M1 (Homo sapiens) (UniProt P11229); experiment: M1/H Eurofins SafetyScreen44 (BI); conditions: Compound concentration 10.0 uM
# [33] = biological target: Muscarinic acetylcholine receptor M2 (Homo sapiens) (UniProt P08172); experiment: M2/H Eurofins SafetyScreen44 (BI); conditions: filed as antagonist, Compound concentration 10.0 uM
# [34] = biological target: Muscarinic acetylcholine receptor M3 (Homo sapiens) (UniProt P20309); experiment: M3/H Eurofins SafetyScreen44 (BI); conditions: Compound concentration 10.0 uM
# [35] = biological target: MAO-A (amine oxidase [flavin-containing] A) (Rattus norvegicus, UniProt P21396); experiment: MAO-A_ANTAG Eurofins SafetyScreen44 (BI); design: mode of action antagonist; scale not given: the % may be the effect or the level left; conditions: compound concentration 10 uM, read-out: % Ctrl
# [36] = biological target: Mu-type opioid receptor (Homo sapiens) (UniProt P35372); experiment: MU/H Eurofins SafetyScreen44 (BI); conditions: Compound concentration 10.0 uM
# [37] = biological target: Sodium channel regulatory subunit beta-1 (Rattus norvegicus) (UniProt Q00954); experiment: NA+/SITE2/R Eurofins SafetyScreen44 (BI); conditions: Compound concentration 10.0 uM
# [38] = biological target: Sodium-dependent noradrenaline transporter (Homo sapiens) (UniProt P23975); experiment: NEUP/H Eurofins SafetyScreen44 (BI); conditions: Compound concentration 10.0 uM
# [39] = biological target: Glutamate receptor ionotropic, NMDA 2A (Rattus norvegicus) (UniProt Q00959); experiment: NMDA/R Eurofins SafetyScreen44 (BI); conditions: Compound concentration 10.0 uM
# [40] = biological target: Neuronal acetylcholine receptor; alpha4/beta2 (Homo sapiens) (UniProt P17787+P43681); experiment: N_NEURO_A4B2 Eurofins SafetyScreen44 (BI); type: protein-complex assay; conditions: filed as agonist, Compound concentration 10.0 uM
# [41] = biological target: cGMP-inhibited 3',5'-cyclic phosphodiesterase 3A (Homo sapiens) (UniProt Q14432); experiment: PDE3A Eurofins SafetyScreen44 (BI); conditions: Compound concentration 10.0 uM
# [42] = biological target: 3',5'-cyclic-AMP phosphodiesterase 4D (Homo sapiens) (UniProt Q08499); experiment: PDE4D2 Eurofins SafetyScreen44 (BI); conditions: Compound concentration 10.0 uM
# [43] = biological target: Sodium-dependent serotonin transporter (Homo sapiens) (UniProt P31645); experiment: SLC6A4/H Eurofins SafetyScreen44 (BI); conditions: filed as antagonist, Compound concentration 10.0 uM
# [44] = biological target: Vasopressin V1a receptor (Homo sapiens) (UniProt P37288); experiment: V1A/HUM Eurofins SafetyScreen44 (BI); conditions: Compound concentration 10.0 uM
# Chain of RNA-directed RNA polymerase (O39930 whole entry): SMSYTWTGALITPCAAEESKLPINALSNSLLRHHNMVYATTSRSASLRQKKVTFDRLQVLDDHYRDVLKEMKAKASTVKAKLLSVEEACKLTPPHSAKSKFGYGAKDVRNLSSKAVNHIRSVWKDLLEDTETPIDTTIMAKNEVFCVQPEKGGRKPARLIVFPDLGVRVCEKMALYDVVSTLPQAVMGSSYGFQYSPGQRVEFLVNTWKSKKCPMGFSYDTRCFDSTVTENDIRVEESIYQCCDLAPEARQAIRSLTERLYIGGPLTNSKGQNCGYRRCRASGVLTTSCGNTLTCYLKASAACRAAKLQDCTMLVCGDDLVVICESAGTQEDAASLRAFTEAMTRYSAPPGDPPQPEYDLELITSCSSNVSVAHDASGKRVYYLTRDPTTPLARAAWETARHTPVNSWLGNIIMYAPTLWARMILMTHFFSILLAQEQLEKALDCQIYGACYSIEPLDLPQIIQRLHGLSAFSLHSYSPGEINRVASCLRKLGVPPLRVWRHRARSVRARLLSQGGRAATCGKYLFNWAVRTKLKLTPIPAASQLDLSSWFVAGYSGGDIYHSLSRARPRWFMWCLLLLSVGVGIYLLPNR
# Chain of Alpha-1A adrenergic receptor (Homo sapiens) (P35348 whole entry): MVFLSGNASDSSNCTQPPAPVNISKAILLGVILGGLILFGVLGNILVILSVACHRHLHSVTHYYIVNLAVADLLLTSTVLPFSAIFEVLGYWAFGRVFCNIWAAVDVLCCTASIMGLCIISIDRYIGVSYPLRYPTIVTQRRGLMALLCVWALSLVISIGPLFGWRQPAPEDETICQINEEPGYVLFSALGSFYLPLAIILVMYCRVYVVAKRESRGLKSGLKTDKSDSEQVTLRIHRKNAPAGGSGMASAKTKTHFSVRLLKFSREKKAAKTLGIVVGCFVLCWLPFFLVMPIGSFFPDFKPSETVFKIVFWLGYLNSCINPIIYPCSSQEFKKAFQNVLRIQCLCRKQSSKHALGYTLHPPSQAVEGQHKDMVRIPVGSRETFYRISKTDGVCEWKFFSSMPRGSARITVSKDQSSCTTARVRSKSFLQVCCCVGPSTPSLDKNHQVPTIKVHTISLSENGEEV
# Chain of Cannabinoid receptor 1 (Homo sapiens) (P21554 whole entry): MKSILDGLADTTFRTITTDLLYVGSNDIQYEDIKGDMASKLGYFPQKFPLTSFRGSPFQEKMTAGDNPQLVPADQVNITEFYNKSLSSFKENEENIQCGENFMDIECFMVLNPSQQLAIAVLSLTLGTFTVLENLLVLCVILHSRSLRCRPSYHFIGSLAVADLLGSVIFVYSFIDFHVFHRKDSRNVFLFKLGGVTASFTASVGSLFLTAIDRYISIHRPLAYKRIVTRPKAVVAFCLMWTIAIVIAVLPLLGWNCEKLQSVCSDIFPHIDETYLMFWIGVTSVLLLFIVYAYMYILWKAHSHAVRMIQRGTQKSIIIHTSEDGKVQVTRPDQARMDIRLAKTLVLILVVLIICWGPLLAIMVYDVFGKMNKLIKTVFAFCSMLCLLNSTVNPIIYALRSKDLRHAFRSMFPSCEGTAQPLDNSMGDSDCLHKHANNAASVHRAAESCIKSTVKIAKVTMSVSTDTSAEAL
# Chain of 5-hydroxytryptamine receptor 2B (Homo sapiens) (P41595 whole entry): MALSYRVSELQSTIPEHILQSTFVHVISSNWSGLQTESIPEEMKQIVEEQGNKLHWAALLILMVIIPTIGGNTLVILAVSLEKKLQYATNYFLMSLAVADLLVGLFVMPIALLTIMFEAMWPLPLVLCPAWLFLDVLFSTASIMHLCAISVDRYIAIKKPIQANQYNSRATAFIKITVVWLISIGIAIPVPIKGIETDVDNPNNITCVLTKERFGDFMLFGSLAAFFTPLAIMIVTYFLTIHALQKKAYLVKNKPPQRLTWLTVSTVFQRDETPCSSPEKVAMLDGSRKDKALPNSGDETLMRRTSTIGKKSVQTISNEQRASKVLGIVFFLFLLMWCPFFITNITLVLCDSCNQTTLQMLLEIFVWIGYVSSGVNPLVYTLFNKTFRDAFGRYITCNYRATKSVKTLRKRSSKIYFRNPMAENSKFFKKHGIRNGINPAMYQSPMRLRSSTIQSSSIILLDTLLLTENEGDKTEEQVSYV
# Chain of Histamine H1 receptor (Homo sapiens) (P35367 whole entry): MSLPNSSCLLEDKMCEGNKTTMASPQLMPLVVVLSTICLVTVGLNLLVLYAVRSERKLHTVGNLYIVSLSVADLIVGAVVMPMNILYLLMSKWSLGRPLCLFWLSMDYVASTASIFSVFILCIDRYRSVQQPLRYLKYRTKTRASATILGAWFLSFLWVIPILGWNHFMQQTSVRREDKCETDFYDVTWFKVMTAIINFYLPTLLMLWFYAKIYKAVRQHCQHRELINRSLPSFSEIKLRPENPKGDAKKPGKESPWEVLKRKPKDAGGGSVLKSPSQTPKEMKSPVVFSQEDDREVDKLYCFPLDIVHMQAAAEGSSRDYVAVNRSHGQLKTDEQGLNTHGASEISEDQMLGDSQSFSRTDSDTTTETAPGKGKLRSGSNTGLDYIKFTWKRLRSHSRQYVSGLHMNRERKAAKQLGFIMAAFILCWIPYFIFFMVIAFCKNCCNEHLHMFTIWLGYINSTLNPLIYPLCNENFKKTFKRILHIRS
# Chain of Kappa-type opioid receptor (Homo sapiens) (P41145 whole entry): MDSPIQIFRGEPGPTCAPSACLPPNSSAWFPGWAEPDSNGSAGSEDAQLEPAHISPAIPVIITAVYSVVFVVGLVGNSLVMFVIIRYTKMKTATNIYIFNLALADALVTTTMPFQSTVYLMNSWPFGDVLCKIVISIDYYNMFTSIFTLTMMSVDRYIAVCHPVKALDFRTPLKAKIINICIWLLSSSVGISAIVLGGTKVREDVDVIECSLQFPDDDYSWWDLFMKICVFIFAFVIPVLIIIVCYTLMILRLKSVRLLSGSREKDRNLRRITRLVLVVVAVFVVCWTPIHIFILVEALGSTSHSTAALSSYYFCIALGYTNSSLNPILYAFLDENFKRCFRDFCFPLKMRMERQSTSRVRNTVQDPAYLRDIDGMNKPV
# Chain of 5-hydroxytryptamine receptor 3A (Homo sapiens) (P46098 whole entry): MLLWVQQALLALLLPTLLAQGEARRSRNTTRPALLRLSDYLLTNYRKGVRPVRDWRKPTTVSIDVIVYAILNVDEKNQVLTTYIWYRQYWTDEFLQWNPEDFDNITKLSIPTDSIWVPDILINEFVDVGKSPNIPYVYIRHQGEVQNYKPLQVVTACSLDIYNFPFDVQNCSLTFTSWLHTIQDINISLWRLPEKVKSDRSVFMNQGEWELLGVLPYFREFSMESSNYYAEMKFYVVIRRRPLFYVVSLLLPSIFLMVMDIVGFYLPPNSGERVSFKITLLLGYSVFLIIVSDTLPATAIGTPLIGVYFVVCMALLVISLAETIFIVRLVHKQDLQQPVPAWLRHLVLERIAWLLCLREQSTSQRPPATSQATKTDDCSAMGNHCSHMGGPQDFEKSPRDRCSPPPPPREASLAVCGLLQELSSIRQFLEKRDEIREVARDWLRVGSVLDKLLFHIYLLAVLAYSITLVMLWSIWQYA
# Chain of hERG (KCNH2) (Q12809 whole entry): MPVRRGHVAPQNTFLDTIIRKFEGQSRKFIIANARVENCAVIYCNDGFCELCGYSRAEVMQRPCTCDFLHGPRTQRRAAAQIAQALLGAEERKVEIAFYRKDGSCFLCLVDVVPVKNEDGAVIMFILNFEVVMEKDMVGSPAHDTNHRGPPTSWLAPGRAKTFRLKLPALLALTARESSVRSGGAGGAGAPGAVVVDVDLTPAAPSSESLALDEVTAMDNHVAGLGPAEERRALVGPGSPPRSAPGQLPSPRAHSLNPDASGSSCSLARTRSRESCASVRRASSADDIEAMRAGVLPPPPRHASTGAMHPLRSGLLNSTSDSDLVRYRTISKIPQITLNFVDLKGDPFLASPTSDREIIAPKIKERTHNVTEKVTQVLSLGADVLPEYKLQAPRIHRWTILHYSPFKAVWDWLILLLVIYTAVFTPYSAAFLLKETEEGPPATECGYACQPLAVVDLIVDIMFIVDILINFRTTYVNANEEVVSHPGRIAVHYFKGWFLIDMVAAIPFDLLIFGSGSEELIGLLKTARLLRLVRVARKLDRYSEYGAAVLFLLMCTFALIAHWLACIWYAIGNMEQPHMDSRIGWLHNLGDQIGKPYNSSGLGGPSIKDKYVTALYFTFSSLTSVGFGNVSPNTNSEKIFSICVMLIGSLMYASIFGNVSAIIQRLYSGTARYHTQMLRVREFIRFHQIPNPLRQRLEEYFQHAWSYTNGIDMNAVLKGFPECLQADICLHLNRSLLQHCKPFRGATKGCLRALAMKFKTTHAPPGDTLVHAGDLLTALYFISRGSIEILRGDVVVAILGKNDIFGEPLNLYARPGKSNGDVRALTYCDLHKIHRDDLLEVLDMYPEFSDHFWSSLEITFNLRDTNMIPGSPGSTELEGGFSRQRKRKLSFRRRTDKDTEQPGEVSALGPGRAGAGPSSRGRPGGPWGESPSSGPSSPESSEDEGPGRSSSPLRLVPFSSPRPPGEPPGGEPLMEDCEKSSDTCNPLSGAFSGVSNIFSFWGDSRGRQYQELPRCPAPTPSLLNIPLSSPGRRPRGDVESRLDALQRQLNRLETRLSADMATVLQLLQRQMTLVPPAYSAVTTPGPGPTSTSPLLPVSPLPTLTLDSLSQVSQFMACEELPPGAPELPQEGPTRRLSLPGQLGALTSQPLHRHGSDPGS
# Chain of D(2) dopamine receptor (Homo sapiens) (P14416 whole entry): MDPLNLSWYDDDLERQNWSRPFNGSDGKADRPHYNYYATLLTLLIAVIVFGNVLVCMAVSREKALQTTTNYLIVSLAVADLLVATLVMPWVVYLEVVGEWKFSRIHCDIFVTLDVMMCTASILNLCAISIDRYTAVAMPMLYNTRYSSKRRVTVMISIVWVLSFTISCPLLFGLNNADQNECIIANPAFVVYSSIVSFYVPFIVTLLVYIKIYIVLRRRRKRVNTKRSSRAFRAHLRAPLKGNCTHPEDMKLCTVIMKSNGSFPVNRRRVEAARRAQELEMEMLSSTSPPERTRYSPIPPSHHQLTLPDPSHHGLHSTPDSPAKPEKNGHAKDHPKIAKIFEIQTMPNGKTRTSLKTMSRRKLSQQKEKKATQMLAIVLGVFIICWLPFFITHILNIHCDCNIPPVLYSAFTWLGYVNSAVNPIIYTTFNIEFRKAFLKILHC
compound,measurement,setting,value
Cn1c(C2(NC(=O)c3ccc(NCC4CCCCC4)nc3)CCC2)nc2ccc(/C=C/C(=O)O)cc21 [BI 7656],IC50,[1],> 5000 nM (not active)
Cn1c(C2(NC(=O)c3ccc4c(C5CCCC5)c(-c5ncc(Br)cn5)n(C)c4c3)CCC2)nc2ccc(/C=C/C(=O)O)cc21 [DELEOBUVIR],IC50,[1],19 nM (active)
same,residual activity,[2],97%
same,residual activity,[3],72%
same,residual activity,[4],73%
same,residual activity,[5],85%
same,residual activity,[6],59%
same,residual activity,[7],116%
same,residual activity,[8],67%
same,residual activity,[9],140%
same,residual activity,[10],105%
same,residual activity,[11],133%
same,residual activity,[12],109%
same,residual activity,[13],100%
same,residual activity,[14],93%
same,residual activity,[15],107%
same,residual activity,[16],96%
same,residual activity,[17],100%
same,residual activity,[18],148%
same,activity at 10 µM,[19],105% (not active)
same,residual activity,[20],67%
same,residual activity,[21],12%
same,residual activity,[22],67%
same,residual activity,[23],86%
same,residual activity,[24],66%
same,residual activity,[25],47%
same,residual activity,[26],107%
same,residual activity,[27],81%
same,residual activity,[28],81%
same,residual activity,[29],108%
same,activity at 10 µM,hERG (KCNH2),68% (not active)
same,residual activity,[30],107%
same,residual activity,[31],117%
same,residual activity,[32],107%
same,residual activity,[33],104%
same,residual activity,[34],101%
same,activity at 10 µM,[35],92% (not active)
same,residual activity,[36],83%
same,residual activity,[37],79%
same,residual activity,[38],76%
same,residual activity,[39],83%
same,residual activity,[40],111%
same,residual activity,[41],140%
same,residual activity,[42],130%
same,residual activity,[43],117%
same,residual activity,[44],97%
